# Columns and labels:
# Format in all cases: in vivo
# [1] = tested on: Heliothis virescens; assay: Spray test on young cotton plants, action against Heliothis virescens larvae; conditions: spray 100, 50, 10, 5, 1 ppm, evaluation 3 to 10 days
# Text: (§1) Young transgenic cotton plants which express the δ-endotoxin CryIIIA are sprayed with an aqueous emulsion spray mixture comprising 100, 50, 10, 5, 1 ppm of imidacloprid respectively. After the spray coating has dried on, the cotton plants are populated with 10 adult Anthonomus grandis, 10 Spodoptera littoralis larvae or 10 Heliothis virescens larvae respectively and introduced into a plastic container. Evaluation takes place 3 to 10 days later.
# as §1, with “thiamethoxam” for “imidacloprid”
# as §1, with “Ti-435” for “imidacloprid”, “later. […]” for “later.”
# [2] = tested on: Ostrinia nubilalis; assay: Maize plot spray test (KnockOut vs conventional maize), action against Ostrinia nubilalis; conditions: 6 days
# Experimental: (§2) A plot (a) planted with maize cv. KnockOut® and an adjacent plot (b) of the same size which is planted with conventional maize, both showing natural infestation with Ostrinia nubilalis, Spodoptera spp. or Heliothis, are sprayed with an aqueous emulsion spray mixture comprising 200, 100, 50, 10, 5, 1 ppm of Ti-435. Immediately afterwards, plot (b) is treated with an emulsion spray mixture comprising 200, 100, 50, 10, 5, 1 ppm of the endotoxin expressed by KnockOut®. Evaluation takes place 6 days later. The percentage reduction in population (% action) is determined by comparing the number of dead pests on the plants of plot (a) with that on the plants of plot (b).
# as §2, with “thiamethoxam.” for “Ti-435.”
# as §2, with “imidacloprid.” for “Ti-435.”
# [3] = tested on: Spodoptera spp.; assay: Maize plot spray test (KnockOut vs conventional maize), action against Spodoptera spp.; conditions: 6 days
# Experimental: as §2
# as §2, with “thiamethoxam.” for “Ti-435.”
# as §2, with “imidacloprid.” for “Ti-435.”
# [4] = tested on: Diabrotica balteata; assay: Maize seedling spray test, action against Diabrotica balteata; conditions: 6 days
# Experimental: A plot (a) planted with maize seedlings cv. KnockOut® and an adjacent plot (b) of the same size which is planted with conventional maize are sprayed with an aqueous emulsion of a spray mixture comprising 400 ppm thiamethoxam. Immediately afterwards, plot (b) is treated with an emulsion spray mixture comprising 400 ppm of the endotoxin expressed by KnockOut®. After the spray coating has dried on, the seedlings are populated with 10 Diabrotica balteata larvae in the second stage and transferred to a plastic container. The test is evaluated 6 days later. The percentage reduction in population (% action) is determined by comparing the number of dead pests on the plants of plot (a) with that on the plants of plot (b).
# [5] = tested on: Nephotettix cincticeps; assay: Rice plant pot test, action against Nephotettix cincticeps (systemic); conditions: 6 days; for control (percentage reduction in population, % action): placed in aqueous emulsion with 400 ppm compound; for control level: pot (B) conventional rice plants
# Experimental: (§3) Rice plants expressing the δ-endotoxin CryIa(b) are planted in a in pot (A) and conventional ice plants are planted in a pot (B). Pot (A) is placed in an aqueous emulsion containing 400 ppm thiamethoxam, whereas plot (B) is placed in a pot containing 400 ppm thiamethoxam and 400 ppm of the δ-endotoxin CryI(b). The plants are subsequently infected with Nephotettix cincticeps larvae of the second and third stage. The test is evaluated after 6 days.
# The percentage reduction in population (% action) is determined by comparing the number of dead pests on the plants of pot (A) with that on the plants of pot (B).
# as §3, with “CryIa(c)” for “CryIa(b)”, “CryI(c).” for “CryI(b).”
# [6] = tested on: Nilaparvata lugens; assay: Rice plant spray test, action against Nilaparvata lugens; conditions: 20° C, 21 days; for control (percentage reduction in population, % action): infected, then spray 400 ppm; for control level: plot (b) conventional rice plants, 400 ppm compound
# Experimental: (§4) Rice plants on a plot (a) expressing the δ-endotoxin CryIA(b) and conventional rice plants on a plot (b) are infected with Nilaparvata lugens, subsequently sprayed with a spray mixture comprising 400 ppm thiamethoxam. Immediately afterwards, plot (b) is treated with an emulsion spray mixture comprising 400 ppm of the δ-endotoxin CryIA(b). The seedlings of plot (a) and (b) are then incubated at 20° C. The test is evaluated after 21 days.
# The percentage reduction in population (% action) is determined by comparing the number of dead pests on the plants of plot (a) with that on the plants of plot (b).
# as §4, with “CryIA(c)” for “CryIA(b)”, “CryIA(c).” for “CryIA(b).”
# [7] = plot (a) maize cv. KnockOut, spray 200, 100, 50, 10, 5, 1 ppm, natural infestation
# [8] = plot (b) conventional maize, compound 200, 100, 50, 10, 5, 1 ppm, then same ppm of the endotoxin expressed by KnockOut
smiles,measurement,setting,value
"CN1COCN(Cc2cnc(Cl)s2)/C1=N\[N+](=O)[O-] [thiamethoxam, 5-(2-Chlorthiazol-5-ylmethyl)-3-methyl-4-nitroimino-perhydro-1,3,5-oxadiazin]","control of the tested insects (percentage reduction in population or feeding damage, % action)","[1]; transgenic cotton expressing δ-endotoxin CryIIIA, compared with non-transgenic plant",superior
same,"control of the tested insects (percentage reduction in population or feeding damage, % action)",[1]; transgenic cotton expressing δ-endotoxin CryIa(c),superior
same,"control (percentage reduction in population, % action)",[2]; [7],Improved control
same,control level,[2]; [8],≤ 60%
same,"control (percentage reduction in population, % action)",[3]; [7],Improved control
same,control level,[3]; [8],≤ 60%
same,"control (percentage reduction in population, % action)","[4]; plot (a) maize seedlings cv. KnockOut, spray 400 ppm, larvae in the second stage",Improved control
same,control level,"[4]; plot (b) conventional maize, 400 ppm compound, then 400 ppm of the endotoxin expressed by KnockOut",≤ 60%
same,"control (percentage reduction in population, % action)",[5]; pot (A) rice plants expressing δ-endotoxin CryIa(b),Improved control
same,"control (percentage reduction in population, % action)",[5]; pot (A) rice plants expressing δ-endotoxin CryIa(c),Improved control
same,control level,[5]; 400 ppm compound and 400 ppm δ-endotoxin CryI(b),≤ 60%
same,control level,[5]; 400 ppm compound and 400 ppm δ-endotoxin CryI(c),≤ 60%
same,"control (percentage reduction in population, % action)",[6]; plot (a) rice plants expressing δ-endotoxin CryIA(b),Improved control
same,"control (percentage reduction in population, % action)",[6]; plot (a) rice plants expressing δ-endotoxin CryIA(c),Improved control
same,control level,[6]; then 400 ppm δ-endotoxin CryIA(b),≤ 60%
same,control level,[6]; then 400 ppm δ-endotoxin CryIA(c),≤ 0%

# Source: patent publication US8399378B2, “Use of neonicotinoids in pest control” (Syngenta Crop Protection LLC, priority 1998, dated 2013)
